Experimental data as given in US20240342292A1, “Compounds for the Degradation of EGFR Kinase” (BeiGene Switzerland GmbH, priority 2021, published 2024).

Tests used:
Del19/T790M/C797S EGFR = assay: EGFR degradation HTRF assay in H1975-clone #28 (DTC) cells; format: cell-based; conditions: H1975 # 28 DTC (Del19/T790M/C797S), 16h treatment; for DC50: HTRF; for Dmax (%): maximum percentage of degradation
Summary of the method: (§1)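 H1975 clones stably overexpressing mutant EGFR by lentivirus, with endogenous EGFR knocked out by sgRNA and homozygosity confirmed by sequencing, were treated 16 h at 37 °C with compounds in 0.2% DMSO medium, 8 doses from 10 uM in 5-fold dilution. Lysates were read by HTRF (665/620 nm); DC50 came from a four-parameter fit.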

L858R/T790M/C797S EGFR = molecular target: T1, L858R/T790M/C797S EGFR (Homo sapiens, UniProt P00533, C797S/L858R/T790M); assay: EGFR degradation HTRF assay in H1975-clone #25 (LTC) cells; format: cell-based; conditions: 16h treatment; for DC50: H1975 # 25-LTC (L858R/T790M/C797S), HTRF; for Dmax: NCI-H1975, H1975 # 25-LTC (L858R/T790M/C797S), maximum percentage of degradation
T1 construct: expressed in transfected cells; host or cells: H1975 clone #25 (lentiviral over-expression, endogenous EGFR knocked out by sgRNA)
T1 sequence (P00533 25-1210 T790M/C797S/L858R): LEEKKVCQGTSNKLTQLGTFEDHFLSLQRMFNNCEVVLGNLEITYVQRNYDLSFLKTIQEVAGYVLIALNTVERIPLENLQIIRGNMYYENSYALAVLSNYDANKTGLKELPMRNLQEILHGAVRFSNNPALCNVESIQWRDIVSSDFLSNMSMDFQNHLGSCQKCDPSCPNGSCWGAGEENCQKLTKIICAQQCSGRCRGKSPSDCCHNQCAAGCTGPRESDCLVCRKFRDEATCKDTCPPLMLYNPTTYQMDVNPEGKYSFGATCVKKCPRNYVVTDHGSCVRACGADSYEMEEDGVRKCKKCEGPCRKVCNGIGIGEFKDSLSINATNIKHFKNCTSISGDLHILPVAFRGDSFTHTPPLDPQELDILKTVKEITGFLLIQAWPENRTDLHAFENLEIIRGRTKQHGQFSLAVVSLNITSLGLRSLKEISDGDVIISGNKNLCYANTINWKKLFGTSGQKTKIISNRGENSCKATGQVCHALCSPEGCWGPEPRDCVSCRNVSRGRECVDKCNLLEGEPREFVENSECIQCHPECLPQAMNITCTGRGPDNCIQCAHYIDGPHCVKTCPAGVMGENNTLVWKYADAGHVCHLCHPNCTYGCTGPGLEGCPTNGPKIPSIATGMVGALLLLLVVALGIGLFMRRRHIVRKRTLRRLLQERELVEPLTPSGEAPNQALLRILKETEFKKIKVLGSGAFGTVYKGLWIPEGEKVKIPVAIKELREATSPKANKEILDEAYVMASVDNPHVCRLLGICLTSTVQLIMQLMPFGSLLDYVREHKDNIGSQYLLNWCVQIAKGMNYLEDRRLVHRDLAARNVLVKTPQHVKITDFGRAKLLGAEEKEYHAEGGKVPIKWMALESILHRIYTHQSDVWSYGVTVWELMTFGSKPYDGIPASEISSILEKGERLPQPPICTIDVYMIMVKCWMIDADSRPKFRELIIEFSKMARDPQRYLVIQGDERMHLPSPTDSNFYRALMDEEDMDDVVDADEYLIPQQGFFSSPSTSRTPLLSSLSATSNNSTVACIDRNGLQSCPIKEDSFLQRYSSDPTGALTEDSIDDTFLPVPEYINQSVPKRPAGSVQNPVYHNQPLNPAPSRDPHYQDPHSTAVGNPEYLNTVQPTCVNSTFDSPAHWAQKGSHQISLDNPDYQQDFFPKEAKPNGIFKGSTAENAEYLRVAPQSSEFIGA
Summary of the method: as §1

Row | Structure (SMILES) | DC50 (Del19/T790M/C797S EGFR) [nM] | DC50 (L858R/T790M/C797S EGFR) [nM] | Dmax (L858R/T790M/C797S EGFR) [%] | Dmax (%) (Del19/T790M/C797S EGFR)
1 | Cc1cc2cc(n1)-c1cnn(C)c1OCCC[C@@H](C)CN1/C(=N/C2=O)Nc2ccc(N3CCN(C4CCN(c5cc(F)c([C@H]6CCC(=O)NC6=O)c(F)c5)CC4)C[C@@H]3C)cc21 [Example 383, (R)-3-(2,6-difluoro-4-(4-((S)-3-methyl-4-((R,E)-1^1,2^6,7-trimethyl-3-oxo-5^2,5^3-dihydro-1^1H,5^1H-11-oxa-4-aza-5(2,1)-benzo[d]imidazola-2(2,4)-pyridina-1(4,5)-pyrazolacycloundecaphane-5-yl)piperazin-1-yl)piperidin-1-yl)phenyl)piperidine-2,6-dione] | 2.19 | 1.34 | 88.8 | 73.18
2 | Cc1cc2cc(n1)-c1cnn(C)c1OCCC[C@@H](C)CN1/C(=N/C2=O)Nc2ccc(N3CCN(C4CCN(c5cc(F)c([C@H]6CCC(=O)NC6=O)c(F)c5)CC4)C[C@H]3C)cc21 [Example 384, (R)-3-(2,6-difluoro-4-(4-((R)-3-methyl-4-((R,E)-1^1,2^6,7-trimethyl-3-oxo-5^2,5^3-dihydro-1^1H,5^1H-11-oxa-4-aza-5(2,1)-benzo[d]imidazola-2(2,4)-pyridina-1(4,5)-pyrazolacycloundecaphane-5^6-yl)piperazin-1-yl)piperidin-1-yl)phenyl)piperidine-2,6-dione] | 1.5 | 1.67 | 87.7 | 75.83
3 | COC[C@H]1CN(C2CCN(c3cc(F)c([C@H]4CCC(=O)NC4=O)c(F)c3)CC2)CCN1c1ccc2c(c1)N1C[C@H](C)CCCOc3c(cnn3C)-c3cc(cc(C)n3)C(=O)/N=C/1N2 [Example 385, (R)-3-(2,6-difluoro-4-(4-((R)-3-(methoxymethyl)-4-((R,E)-1^1,2^6,7-trimethyl-3-oxo-5^2,5^3-dihydro-1^1H,5^1H-li-oxa-4-aza-5(2,1)-benzo[d]imidazola-2(2,4)-pyridina-1(4,5)-pyrazolacycloundecaphane-5^6-yl)piperazin-1-yl)piperidin-1-yl)phenyl)piperidine-2,6-dione] | 1.58 | 2.63 | 82.3 | 63.01
4 | COC[C@@H]1CN(C2CCN(c3cc(F)c([C@H]4CCC(=O)NC4=O)c(F)c3)CC2)CCN1c1ccc2c(c1)N1C[C@H](C)CCCOc3c(cnn3C)-c3cc(cc(C)n3)C(=O)/N=C/1N2 [Example 386, (R)-3-(2,6-difluoro-4-(4-((S)-3-(methoxymethyl)-4-((R,E)-1^1,2^6,7-trimethyl-3-oxo-5^2,5^3-dihydro-1^1H,5^1H-11-oxa-4-aza-5(2,1)-benzo[d]imidazola-2(2,4)-pyridina-1(4,5)-pyrazolacycloundecaphane-5-yl)piperazin-1-yl)piperidin-1-yl)phenyl)piperidine-2,6-dione] | 2.01 | 2.7 | 86.6 | 72.30
5 | COCc1cc2c(cc1N1CCN(C3CCN(c4cc(F)c([C@H]5CCC(=O)NC5=O)c(F)c4)CC3)CC1)N1C[C@H](C)CCCOc3c(cnn3C)-c3cc(cc(C)n3)C(=O)/N=C/1N2 [Example 390, (R)-3-(2,6-difluoro-4-(4-(4-((R,E)-5^5-(methoxymethyl)-1^1,2^6,7-trimethyl-3-oxo-5^2,5^3-dihydro-1^1H,5^1H-11-oxa-4-aza-5(2,1)-benzo[d]imidazola-2(2,4)-pyridina-1(4,5)-pyrazolacycloundecaphane-5^6-yl)piperazin-1-yl)piperidin-1-yl)phenyl)piperidine-2,6-dione] | 1.69 | 2.49 | 87.7 | 73.87
6 | Cc1cc2cc(n1)-c1cnn(C)c1OCC[C@H]1C[C@@H]1CN1/C(=N/C2=O)Nc2ccc(N3CCN(C4CCN(c5cc(F)c([C@H]6CCC(=O)NC6=O)c(F)c5)CC4)CC3)cc21 [Example 391, (R)-3-(4-(4-(4-((7^1S,7^2R,E)-1^1,2^6-dimethyl-3-oxo-5^2,5^3-dihydro-1^1H,5^1H-10-oxa-4-aza-5(2,1)-benzo[d]imidazola-2(2,4)-pyridina-1(4,5)-pyrazola-7(1,2)-cyclopropanacyclodecaphane-5^6-yl)piperazin-1-yl)piperidin-1-yl)-2,6-difluorophenyl)piperidine-2,6-dione] | 1.54 | 1.56 | 87.5 | 85.34
7 | Cc1cc2cc(n1)-c1cnn(C)c1OCCC[C@@H](C)CN1/C(=N/C2=O)Nc2ccc(N3CCC(N(C)C4CCN(c5cc(F)c([C@H]6CCC(=O)NC6=O)c(F)c5)CC4)CC3)cc21 [Example 394, (R)-3-(2,6-difluoro-4-(4-(methyl(1-((R,E)-1^1,2^6,7-trimethyl-3-oxo-5^2,5^3-dihydro-1^1H,5^1H-11-oxa-4-aza-5(2,1)-benzo[d]imidazola-2(2,4)-pyridina-1(4,5)-pyrazolacycloundecaphane-5^6-yl)piperidin-4-yl)amino)piperidin-1-yl)phenyl)piperidine-2,6-dione] | 0.901 | 0.787 | 74.1 | 69.35
8 | COC[C@@H]1CN(c2ccc3c(c2)N2C[C@H](C)CCCOc4c(cnn4C)-c4cc(cc(C)n4)C(=O)/N=C/2N3)CCN1C1CCN(c2cc(F)c([C@H]3CCC(=O)NC3=O)c(F)c2)CC1 [Example 397, (R)-3-(2,6-difluoro-4-(4-((S)-2-(methoxymethyl)-4-((R,E)-1^1,2^6,7-trimethyl-3-oxo-5^2,5^3-dihydro-1^1H,5^1H-1i-oxa-4-aza-5(2,1)-benzo[d]imidazola-2(2,4)-pyridina-1(4,5)-pyrazolacycloundecaphane-5-yl)piperazin-1-yl)piperidin-1-yl)phenyl)piperidine-2,6-dione] | 2.13 | 2.01 | 88.3 | 76.68

Stronger by DC50 (Del19/T790M/C797S EGFR), values ahead:

Row | DC50 (Del19/T790M/C797S EGFR) [nM] | DC50 (L858R/T790M/C797S EGFR) [nM] | Dmax (L858R/T790M/C797S EGFR) [%] | Structure (SMILES) | Dmax (%) (Del19/T790M/C797S EGFR)
9 | 0.821 | 1.29 | 86.7 | Cc1cc2cc(n1)-c1cnn(C)c1OCCC[C@@H](C)CN1/C(=N/C2=O)Nc2ccc(N3CCC(N4CC(Nc5cc(F)c([C@H]6CCC(=O)NC6=O)c(F)c5)C4)CC3)cc21 [Example 392, (R)-3-(2,6-difluoro-4-((1-(1-((R,E)-1^1,2^6,7-trimethyl-3-oxo-5^2,5^3-dihydro-1^1H,5^1H-11-oxa-4-aza-5(2,1)-benzo[d]imidazola-2(2,4)-pyridina-1(4,5)-pyrazolacycloundecaphane-5^6-yl)piperidin-4-yl)azetidin-3-yl)amino)phenyl)piperidine-2,6-dione] | 75.48
10 | 0.782 | 1.46 | 87.2 | Cc1cc2cc(n1)-c1cnn(C)c1OCCC[C@@H](C)CN1/C(=N/C2=O)Nc2ccc(N3CCC(N4CCN(c5cc(F)c([C@H]6CCC(=O)NC6=O)c(F)c5)CC4)CC3)cc21 [Example 387, (R)-3-(2,6-difluoro-4-(4-(1-((R,E)-1^1,2^6,7-trimethyl-3-oxo-5^2,53-dihydro-1^1H,5^1H-11-oxa-4-aza-5(2,1)-benzo[d]imidazola-2(2,4)-pyridina-1(4,5)-pyrazolacycloundecaphane-5^6-yl)piperidin-4-yl)piperazin-1-yl)phenyl)piperidine-2,6-dione] | 76.00
11 | 0.776 | 1.11 | 86.5 | Cc1cc2cc(n1)-c1cnn(C)c1OCCC[C@@H](C)CN1/C(=N/C2=O)Nc2ccc(N3CCN(C4CCN(c5cc(F)c([C@H]6CCC(=O)NC6=O)c(F)c5)CC4)[C@H](C)C3)cc21 [Example 388, (R)-3-(2,6-difluoro-4-(4-((R)-2-methyl-4-((R,E)-1^1,2^6,7-trimethyl-3-oxo-5^2,5^3-dihydro-1^1H,5^1H-11-oxa-4-aza-5(2,1)-benzo[d]imidazola-2(2,4)-pyridina-1(4,5)-pyrazolacycloundecaphane-5^6-yl)piperazin-1-yl)piperidin-yl)phenyl)piperidine-2,6-dione] | 80.94
12 | 0.681 | 0.622 | 83.6 | Cc1cc2cc(n1)-c1cnn(C)c1OCCC[C@@H](C)CN1/C(=N/C2=O)Nc2ccc(N3CCN(C4CCN(c5ccc6c(c5)CN([C@H]5CCC(=O)NC5=O)C6=O)CC4)CC3)cc21 [Example 396, (S)-3-(1-oxo-5-(4-(4-((R,E)-1^1,2^6,7-trimethyl-3-oxo-5^2,53-dihydro-1^1H,5^1H-11-oxa-4-aza-5(2,1)-benzo[d]imidazola-2(2,4)-pyridina-1(4,5)-pyrazolacycloundecaphane-5^6-yl)piperazin-1-yl)piperidin-1-yl)isoindolin-2-yl)piperidine-2,6-dione] | 63.49
13 | 0.54 | 0.34 | 89.8 | Cc1cc2cc(n1)-c1cnn(C)c1OCCC[C@@H](C)CN1/C(=N/C2=O)Nc2ccc(N3CCN(CCc4ccc(C5CCC(=O)NC5=O)nc4C)CC3)cc21 (stereo partly drawn) [Example 393, 3-(6-methyl-5-(2-(4-((R,E)-1^1,2^6,7-trimethyl-3-oxo-5^2,5^3-dihydro-1^1H,5^1H-11-oxa-4-aza-5(2,1)-benzo[d]imidazola-2(2,4)-pyridina-1(4,5)-pyrazolacycloundecaphane-5^6-yl)piperazin-1-yl)ethyl)pyridin-2-yl)piperidine-2,6-dione] | 77.73
14 | 0.526 | 1.02 | 84.5 | Cc1cc2cc(n1)-c1cnn(C)c1OCCC[C@@H](C)CN1/C(=N/C2=O)Nc2ccc(N3CCN(C4CCN(c5ccc(C6CCC(=O)NC6=O)nc5)CC4)CC3=O)cc21 (stereo partly drawn) [Example 395, 3-(5-(4-(3-oxo-4-((R,E)-1^1,2^6,7-trimethyl-3-oxo-5^2,5^3-dihydro-1^1H,5^1H-11-oxa-4-aza-5(2,1)-benzo[d]imidazola-2(2,4)-pyridina-1(4,5)-pyrazolacycloundecaphane-5^6-yl)piperazin-1-yl)piperidin-yl-)pyridin-2-yl)piperidine-2,6-dione] | 77.96
